Assay [1] concerns the target T1, UDP-N-acetylglucosamine--dolichyl-phosphate N-acetylglucosaminephosphotransferase (Homo sapiens) (UniProt Q9H3H5).
T1 sequence (whole entry): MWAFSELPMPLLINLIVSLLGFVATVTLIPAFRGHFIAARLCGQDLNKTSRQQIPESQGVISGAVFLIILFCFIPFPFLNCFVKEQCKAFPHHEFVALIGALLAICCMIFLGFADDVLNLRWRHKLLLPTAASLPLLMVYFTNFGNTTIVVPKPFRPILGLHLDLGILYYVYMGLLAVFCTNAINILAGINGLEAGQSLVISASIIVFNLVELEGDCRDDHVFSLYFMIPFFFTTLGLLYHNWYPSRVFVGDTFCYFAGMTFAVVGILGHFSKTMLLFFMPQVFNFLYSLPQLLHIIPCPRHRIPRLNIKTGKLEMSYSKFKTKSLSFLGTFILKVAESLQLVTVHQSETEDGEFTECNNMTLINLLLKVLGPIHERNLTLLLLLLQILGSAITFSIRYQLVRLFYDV
Briefly: Inhibition of DPAGT1 in human PANC-1 cells assessed as reduction in snail protein expression incubated for 24 hrs by immunofluorescence staining assay. Type of assay: cell-based.

Assay [2] in a line: Synergistic cytotoxicity in human PD002 cells assessed as FIC at 2 uM incubated for 72 hrs in presence of 0.039 uM paclitaxel by IncuCyte live cell analysis imaging system based assay. The assay is classed as functional.
Assay [3] in a line: Cytotoxicity in human hTERT-HPNE cells assessed as reduction in cell viability incubated for 72 hrs by MTT assay. The assay is classed as cell-based.
Assay [4] in a line: Inhibition of cell migration in human PD002 cells assessed as wound healing rate at 0.2 uM incubated for 24 hrs by wound healing assay (reference value: 63%). Type of assay: functional. Also on record: scale not given: the % may be the effect or the level left.
Assay [5] has as its target T2, UDP-N-acetylglucosamine--dolichyl-phosphate N-acetylglucosaminephosphotransferase (Homo sapiens, UniProt Q9H3H5).
T2 sequence (Q9H3H5 whole entry): T1 sequence (whole entry)
In words: Inhibition of human DPAGT1 expressed in HEK293 (Expi293) cells incubated for 2 hrs using UDP-GlcN-Cg-FITC and alpha-dihydroundecap-renyl phosphate by reversed-phase HPLC analysis. The assay is classed as cell-based.

Another assay relates to PD002. In words: Inhibition of DPAGT1 protein expression in human PD002 cells at 0.2 uM incubated for 24 hrs by Western blot analysis. Type of assay: functional, cell-based. (In general: A western blot detects proteins with antibodies after separation by electrophoresis.)
A short description of assay [6]: Cytotoxicity in mouse L1210 cells assessed as reduction in cell viability incubated for 72 hrs by MTT assay. The note with it: L1210, 72 h. For orientation: Formazan colour is commonly taken as a measure of viable cells.
Assay [7] in a line: Cytotoxicity in human PD002 cells assessed as reduction in cell viability incubated for 72 hrs by MTT assay. Type of assay: functional, cell-based. To be noted: PD002, 72 h.
Assay [8] is described as follows: Inhibition of Escherichia coli WecA incubated for 2 hrs using UDP-Glucosamine-C6-FITC substrate by reversed-phase HPLC analysis. Further details: species or system Escherichia coli BL21.
Assay [9] in a line: Synergistic cytotoxicity in human PD002 cells assessed as FIC at 2 uM incubated for 72 hrs in presence of 0.31 uM paclitaxel by IncuCyte live cell analysis imaging system based assay. Type of assay: functional.

Molecules are shown by their SMILES. pIC50: −log10 of the molar value. Active and inactive are the calls of the source. No cut-off for these calls is given here.

As usually defined, the pIC50 is the negative decadic logarithm of the IC50, by convention in mol/L. In the case of `CO[C@H]1[C@@H](O)[C@H](n2ccc(=O)[nH]c2=O)O[C@@H]1[C@@H](O[C@H]1OC(C(=O)NCc2ccc(N3CCC(Oc4ccc(OC(F)(F)F)cc4)CC3)cc2)=C[C@H](O)[C@@H]1O)C(N)=O`, the inhibition entry (in assay [1]; in the assay with PD002) was “Active” each time. In addition, the values for the FIC in [2] and in assay [9] were 0.037 and 0.26, respectively. Besides, the pIC50 in [3] was below 4.30; in assay [5], 6.70; in assay [6], below 4.30; in assay [7] it was 4.46; in [8] it was 7.00. In [4], the Activity was found to be 20%.

The values above are taken from ChEMBL document CHEMBL4699480 (J Med Chem, 2020).
